Test results from PubChem BioAssay AID540264 (Southern Research Specialized Biocontainment Screening …, 2011).
Several values for one entry are separate records, joined by “and”; a condition that tells them apart may be missing. Equal values may be shown once. Activity calls are given as the source filed them.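 The calls were made as follows: active = CPE inhibition of 50% or more; inactive = the rest.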

Experiments:
[1] = system: HEp-2 RSV Long CPE inhibition, luminescence; assay: RSV cytopathic effect inhibitors, dose response, cell-based, RSV Long, luminescence, synthesized compounds, set 11 (AID 540264)
[2] = as above; conditions: HEp-2 RSV Long CPE inhibition, luminescence; at 200 µM (top of the series)

| IC50 [1] | SMILES | CPE inhibition [2] |
| --- | --- | --- |
| 1.66 µM | Cc1ccc(Cn2c(=O)n(Cc3ccc(C(=O)NCCCOC(C)C)cc3)c(=O)c3ccccc32)cc1 | – |
| 1.5 µM and 1.7 µM | Cc1ccc(C)c(NC(=O)[C@@H]2CCCN2S(=O)(=O)c2cccc3cccnc23)c1 | – |
| 1.72 µM | CCOCCCNC(=O)c1ccc(Cn2c(=O)c3ccccc3n(Cc3ccc(C)cc3)c2=O)cc1 | – |
| 1.8 µM | Cc1ccc(Cn2c(=O)n(Cc3ccc(C(=O)NC(C)(C)C)cc3)c(=O)c3ccccc32)cc1 | – |
| 2.15 µM | COCCCNC(=O)c1ccc(Cn2c(=O)c3ccccc3n(Cc3cccc(Br)c3)c2=O)cc1 | – |

The next lines start with the compound.

| SMILES | IC50 [1] | CPE inhibition [2] |
| --- | --- | --- |
| COCCCNC(=O)c1ccc(Cn2c(=O)c3cc(Cl)ccc3n(Cc3ccc(C)cc3)c2=O)cc1 | – | 5.48% (inactive) |
| COCCCNC(=O)c1ccc(Cn2c(=O)c3ccccc3n(Cc3ccc(F)cc3)c2=O)cc1 | 5 µM | – |
| COCCCNC(=O)c1ccc(Cn2c(=O)c3ccccc3n(Cc3ccccc3F)c2=O)cc1 | – | 1.77% (inactive) |
| Cc1ccc(Cn2c(=O)n(Cc3ccc(C(=O)NCCCN(C)C)cc3)c(=O)c3ccccc32)cc1 | 9.29 µM | – |
| COCCCNC(=O)c1ccc(Cn2c(=O)c3ccccc3n(Cc3ccccc3Br)c2=O)cc1 | – | 0.32% (inactive) |
| Cc1ccc(Cn2c(=O)n(Cc3ccc(C(=O)Nc4ccncc4)cc3)c(=O)c3ccccc32)cc1 | 6.29 µM | – |
